Consider seven compounds from US20110118239A1, “PREPARATION AND ENANTIOMERIC SEPARATION OF 7-(3-PYRIDINYL)-1,7-DIAZASPIRO[4.4]NONANE AND NOVEL SALT FORMS OF THE RACEMATE AND ENANTIOMERS” (Targacept, Inc., priority 2008, published 2011).

Data set [1] is described as follows: Dynamic vapor sorption (DVS) analysis. Type of data set: physicochemical. The protocol: In a dynamic vapor sorption (DVS) apparatus, a sample of (R)-7-(3-pyridinyl)-1,7-diazaspiro[4.4]nonane mono-p-hydroxybenzoate (˜14.1 mg) was subjected to gradually increasing, followed by then gradually decreasing, humidity over a period of about 10 h (see details below). […] Given its relatively high melting point and crystalline nature, it is therefore a particularly good candidate for drug development.

A further data set deals with A/J mice. The experiment in a line: Depression model, tail suspension (TS). It counts as in vivo. The conditions noted are these: 20 mg/kg, 10 min test. The protocol:
On the day of the test, A/J mice were brought to acclimate to the testing room for one hour. Eight animals were tested in each run. Following pretreatment with vehicle, desipramine (20 mg/kg) or Compound A, p-hydroxybenzoate (0.1, 0.3, and 1 mg/kg), a piece of transparent (Scotch) tape was attached to the tail of each mouse from about mid-tail with approximately 2 cm of tape past the end of the tail. The mice were then placed in the tail suspension chambers (white polyvinylchloride cubicles measuring 33×33×31.75 cm; Med Associates Inc., St Albans, Vt.). The mice were suspended from the hook of the TS force transducer via the tail tape. The force transducer transmitted the movements of the mouse to a recording device connected to a computer. Immobility time, struggle time, and intensity were automatically recorded for each min during the 10 min test period. Upon completion of the TS test, the mice were returned to their home cage and then to the animal colony. The TS chambers were cleaned between sessions. Data were analyzed by repeated measures and one-way analysis of variance (ANOVA) followed by Fisher PLSD post-hoc comparisons. An effect was considered significant if p<0.05.

Data set [2] concerns non-selective peripheral muscarinic. The experiment in a line: Standard receptor screen at 10 μM: non-selective peripheral muscarinic. Type of data set: binding. The note with it: hydrochloride salt. On the procedure: (§1) Both Compound A, (R)-7-(3-pyridinyl)-1,7-diazaspiro[4.4]nonane, and Compound B, (S)-7-(3-pyridinyl)-1,7-diazaspiro[4.4]nonane, each as their hydrochloride salts, were screened, at 10 μM concentration, against a standard set of receptors. […] Thus, the two stereoisomers differentiate from one another in terms of their non-nicotinic receptor binding characteristics. This differentiation is believed to translate into a differentiation between the ability of each of (R)-7-(3-pyridinyl)-1,7-diazaspiro[4.4]nonane and (S)-7-(3-pyridinyl)-1,7-diazaspiro[4.4]nonane to treat various disease states, including, for example, the ability of Compound A to enhance desensitization of α4β2 NNRs.

The target of a further data set is histamine H3 (Homo sapiens, UniProt Q9Y5N1). The experiment in a line: Standard receptor screen at 10 μM: histamine H3. The note with it: hydrochloride salt, read-out: inhibition at histamine H3 receptors. Type of data set: binding. On the procedure: as §1
For the next data set, the target named is Human Muscle (Homo sapiens, UniProt P02708+P07510+Q07001). The experiment in a line: Function at human muscle subtype, single point 100 μM. It counts as cell-based. On the procedure: (§2) Binding and function of the compounds to relevant receptor sites was determined in accordance with the techniques described in PCT WO 2008/057938. Inhibition constants (Ki values), reported in nM, were calculated from the IC50 values using the method of Cheng et al., Biochem. Pharmacol. 22: 3099 (1973). […] Thus, the compounds of the present invention are selective modulators of the α4β2 NNR subtype.

Data set [3] is described as follows: Single rising dose (SRD) study of Compound C, plasma pharmacokinetics of racemate and enantiomers. The note with it: for t1/2 (mean) / Cmax / Tmax / AUC(0-inf) / half-life: plasma; for t1/2 (mean): Table 3; for Cmax / Tmax / AUC(0-inf) / half-life: human, po; for AUC(0-inf): read-out: AUCinf (mean); for half-life: read-out: Mean (SD) Terminal Elimination Half-life (converted). Type of data set: in vivo. On the procedure: A single, rising dose (SRD) study was performed with Compound C (the racemate). Plasma samples were analyzed for the content of the two enantiomers, Compound A (substantially pure R), Compound B (substantially pure S). Three dose groups (Compound C) were analyzed, 50, 100, and 400 mg, and four subjects were randomly selected from the 6 subjects tested to receive active treatment in each cohort examined in the SRD study.

In a further data set the test system is non-elective sigma. The experiment in a line: Standard receptor screen at 10 μM: sigma. Type of data set: binding. The conditions noted are these: hydrochloride salt. On the procedure: as §1
The target in a further data set is Rat α7 (Rattus norvegicus, UniProt Q05941). The experiment in a line: Binding to rat α7 NNR (Ki). The note with it: read-out: Rat α7 Ki. The protocol: as §2
The subject of data set [4] is animal models of depression and anxiety. The experiment in a line: Validated animal models of depression and anxiety (summary statement). The conditions noted are these: in vivo.
For data set [5], the system named is non-selective central muscarinic. The experiment in a line: Standard receptor screen at 10 μM: non-selective central muscarinic. The note with it: hydrochloride salt. It counts as binding. The protocol:
as §1

For a further data set, the target named is Rat α4β2 (Rattus norvegicus, UniProt P09483+P12390). The experiment in a line: Binding to rat α4β2 NNR (Ki). The note with it: read-out: Rat α4β2 Ki. On the procedure: as §2
In a further data set the test system is nicotinic. The experiment in a line: Standard receptor screen at 10 μM: nicotinic. Type of data set: binding. The note with it: hydrochloride salt. The protocol:
as §1

In another data set the target is T1, human α4β2 NNRs (Homo sapiens, UniProt P17787+P43681).
T1 construct: expressed in transfected cells; host or cells: SH-EP1
The experiment in a line: Function at human α4β2 NNRs, SH-EP1/human a4b2 cells, FLIPR calcium. The conditions noted are these: SH-EP1/human a4b2 cells, FLIPR calcium. Type of data set: cell-based. The protocol:
as §2
After the loading period, plates were equilibrated to room temperature and the cells exposed to the test article ([…]) or nicotine or buffer alone on a FLIPR (Molecular Devices). Fluorescence (at 485 nm) was monitored throughout the experiment. The test article change in fluorescence was compared to both a positive control (10 μM nicotine) and a negative control (buffer alone) to determine the percent response relative to that of nicotine.

A further data set concerns rats. The experiment in a line: Seizure/convulsion induction after acute dose, rats. It counts as in vivo. The note with it: male rats; acute oral dose of 300 mg/kg. The protocol: For example, preclinically, Compound C induced seizures following acute doses:
Likewise, Compound B induced convulsion in 1/6 male rats following an acute oral dose of 300 mg/kg.
In fact, the effect of Compound A was not statistically different from the vehicle control.

For another data set, the target named is Human α4β2 (Homo sapiens, UniProt P17787+P43681). The experiment in a line: Binding to human α4β2 NNR (Ki). The note with it: read-out: Human α4β2 Ki. The protocol: as §2
The next data set concerns the target Human Ganglion (Homo sapiens, UniProt P30926+P32297). The experiment in a line: Function at human ganglion subtype, single point 100 μM. Type of data set: cell-based. On the procedure:
as §2

For a further data set, the target named is T2, muscarinic M1 (Homo sapiens, UniProt P11229).
T2 sequence (P11229 1-460): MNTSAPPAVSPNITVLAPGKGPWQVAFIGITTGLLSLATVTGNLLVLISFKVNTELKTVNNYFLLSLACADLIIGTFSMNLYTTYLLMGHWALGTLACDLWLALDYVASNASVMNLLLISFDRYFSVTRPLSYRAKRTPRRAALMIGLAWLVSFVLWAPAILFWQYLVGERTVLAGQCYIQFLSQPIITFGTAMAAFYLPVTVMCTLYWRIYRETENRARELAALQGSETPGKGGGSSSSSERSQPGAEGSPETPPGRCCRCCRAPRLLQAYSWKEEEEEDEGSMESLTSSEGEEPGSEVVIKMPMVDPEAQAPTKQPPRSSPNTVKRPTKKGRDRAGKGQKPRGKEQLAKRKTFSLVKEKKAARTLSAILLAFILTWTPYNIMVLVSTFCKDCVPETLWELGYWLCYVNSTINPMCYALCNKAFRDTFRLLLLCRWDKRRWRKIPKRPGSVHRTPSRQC
The experiment in a line: Standard receptor screen at 10 μM: muscarinic M1. Type of data set: binding. The conditions noted are these: hydrochloride salt, read-out: inhibition at muscarinic M1 receptors. The protocol:
as §1

Where “and” joins values, the source holds several entries; their conditions need not be identical. Equal values may be shown once. Where a name gives a salt, the structure may show the parent alone. Read-outs that look alike come from different tables or passages of the source.

T1 sequence (P43681 29-627 limits assumed): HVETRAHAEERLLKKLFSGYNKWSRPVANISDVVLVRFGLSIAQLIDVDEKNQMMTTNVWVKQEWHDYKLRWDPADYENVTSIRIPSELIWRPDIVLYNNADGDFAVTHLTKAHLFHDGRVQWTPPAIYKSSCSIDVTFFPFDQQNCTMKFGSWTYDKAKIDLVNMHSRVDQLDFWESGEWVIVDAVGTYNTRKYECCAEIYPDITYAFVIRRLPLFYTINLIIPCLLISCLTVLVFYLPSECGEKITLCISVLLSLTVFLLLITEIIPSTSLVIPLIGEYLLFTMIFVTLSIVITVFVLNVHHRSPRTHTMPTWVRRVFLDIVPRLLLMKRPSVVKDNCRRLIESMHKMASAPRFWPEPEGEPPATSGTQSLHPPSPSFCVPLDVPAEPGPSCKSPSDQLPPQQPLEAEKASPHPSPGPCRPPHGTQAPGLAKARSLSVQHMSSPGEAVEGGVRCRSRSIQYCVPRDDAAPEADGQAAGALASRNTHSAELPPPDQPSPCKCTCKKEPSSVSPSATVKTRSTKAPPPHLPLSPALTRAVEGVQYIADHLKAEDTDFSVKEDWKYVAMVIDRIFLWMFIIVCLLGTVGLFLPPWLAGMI
T1 sequence (P17787 26-502): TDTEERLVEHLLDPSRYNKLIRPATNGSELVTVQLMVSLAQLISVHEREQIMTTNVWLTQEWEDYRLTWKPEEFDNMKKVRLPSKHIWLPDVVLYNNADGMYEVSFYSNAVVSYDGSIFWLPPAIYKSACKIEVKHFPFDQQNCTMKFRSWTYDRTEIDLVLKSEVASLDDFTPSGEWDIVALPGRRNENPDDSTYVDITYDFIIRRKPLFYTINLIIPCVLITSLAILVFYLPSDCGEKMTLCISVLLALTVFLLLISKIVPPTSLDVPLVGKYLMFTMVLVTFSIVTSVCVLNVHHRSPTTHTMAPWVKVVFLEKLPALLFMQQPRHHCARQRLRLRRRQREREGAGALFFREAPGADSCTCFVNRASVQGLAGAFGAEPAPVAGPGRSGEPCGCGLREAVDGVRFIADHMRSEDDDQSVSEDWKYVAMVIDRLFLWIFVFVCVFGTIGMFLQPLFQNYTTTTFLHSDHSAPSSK
Sequence of histamine H3 (Q9Y5N1 whole entry): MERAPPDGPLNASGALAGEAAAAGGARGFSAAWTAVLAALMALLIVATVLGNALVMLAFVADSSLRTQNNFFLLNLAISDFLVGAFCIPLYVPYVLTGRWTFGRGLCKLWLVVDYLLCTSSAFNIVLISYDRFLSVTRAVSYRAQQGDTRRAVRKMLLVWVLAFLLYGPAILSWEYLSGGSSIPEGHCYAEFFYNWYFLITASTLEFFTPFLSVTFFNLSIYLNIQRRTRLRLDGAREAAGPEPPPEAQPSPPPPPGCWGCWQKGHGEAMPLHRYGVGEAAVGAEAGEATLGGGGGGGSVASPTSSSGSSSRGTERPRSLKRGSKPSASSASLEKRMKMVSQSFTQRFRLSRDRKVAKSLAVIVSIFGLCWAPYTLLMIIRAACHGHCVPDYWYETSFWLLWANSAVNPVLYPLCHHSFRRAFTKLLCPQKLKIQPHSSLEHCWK
Sequence of Rat α7 (Q05941 23-502): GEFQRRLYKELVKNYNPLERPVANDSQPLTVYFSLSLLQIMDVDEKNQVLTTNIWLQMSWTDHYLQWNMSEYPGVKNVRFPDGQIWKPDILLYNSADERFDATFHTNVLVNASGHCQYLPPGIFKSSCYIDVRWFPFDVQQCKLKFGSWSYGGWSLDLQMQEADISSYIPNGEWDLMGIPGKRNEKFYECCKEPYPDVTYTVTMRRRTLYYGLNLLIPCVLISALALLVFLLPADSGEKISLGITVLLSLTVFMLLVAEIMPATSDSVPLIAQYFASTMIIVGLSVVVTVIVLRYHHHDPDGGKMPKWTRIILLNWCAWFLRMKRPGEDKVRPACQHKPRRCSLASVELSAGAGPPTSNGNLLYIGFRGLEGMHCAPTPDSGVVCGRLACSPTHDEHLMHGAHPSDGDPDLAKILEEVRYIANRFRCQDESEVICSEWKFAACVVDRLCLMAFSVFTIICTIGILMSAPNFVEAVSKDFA
Sequence of Rat α4β2 (P09483 31-630): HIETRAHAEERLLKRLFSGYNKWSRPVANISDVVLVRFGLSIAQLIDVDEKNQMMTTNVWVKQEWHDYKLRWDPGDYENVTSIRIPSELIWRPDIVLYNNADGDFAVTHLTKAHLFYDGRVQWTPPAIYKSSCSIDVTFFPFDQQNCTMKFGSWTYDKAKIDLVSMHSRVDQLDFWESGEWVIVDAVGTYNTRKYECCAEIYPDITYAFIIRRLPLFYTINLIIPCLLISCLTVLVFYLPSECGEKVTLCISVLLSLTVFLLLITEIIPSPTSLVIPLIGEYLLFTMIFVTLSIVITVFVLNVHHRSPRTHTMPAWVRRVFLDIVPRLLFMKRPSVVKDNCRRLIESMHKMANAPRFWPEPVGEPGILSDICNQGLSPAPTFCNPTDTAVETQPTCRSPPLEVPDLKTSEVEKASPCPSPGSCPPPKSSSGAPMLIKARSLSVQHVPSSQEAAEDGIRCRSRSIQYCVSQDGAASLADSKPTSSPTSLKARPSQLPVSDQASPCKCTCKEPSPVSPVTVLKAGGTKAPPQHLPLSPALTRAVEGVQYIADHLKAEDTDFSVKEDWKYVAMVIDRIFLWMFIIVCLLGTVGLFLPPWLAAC
Sequence of Rat α4β2 (P12390 25-500): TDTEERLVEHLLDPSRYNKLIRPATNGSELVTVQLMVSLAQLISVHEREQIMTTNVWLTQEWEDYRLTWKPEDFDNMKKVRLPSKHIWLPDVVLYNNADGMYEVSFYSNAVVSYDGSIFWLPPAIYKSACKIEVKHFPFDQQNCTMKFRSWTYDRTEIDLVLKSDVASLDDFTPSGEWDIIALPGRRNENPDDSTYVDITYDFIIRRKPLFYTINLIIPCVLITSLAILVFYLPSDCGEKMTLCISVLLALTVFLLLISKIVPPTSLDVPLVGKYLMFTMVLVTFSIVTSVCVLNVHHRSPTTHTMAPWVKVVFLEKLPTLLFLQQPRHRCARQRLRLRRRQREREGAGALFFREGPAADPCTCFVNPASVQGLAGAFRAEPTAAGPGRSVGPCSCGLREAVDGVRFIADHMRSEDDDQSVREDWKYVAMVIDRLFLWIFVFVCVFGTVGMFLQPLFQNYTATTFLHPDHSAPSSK
Sequence of Human Ganglion (P32297 32-505): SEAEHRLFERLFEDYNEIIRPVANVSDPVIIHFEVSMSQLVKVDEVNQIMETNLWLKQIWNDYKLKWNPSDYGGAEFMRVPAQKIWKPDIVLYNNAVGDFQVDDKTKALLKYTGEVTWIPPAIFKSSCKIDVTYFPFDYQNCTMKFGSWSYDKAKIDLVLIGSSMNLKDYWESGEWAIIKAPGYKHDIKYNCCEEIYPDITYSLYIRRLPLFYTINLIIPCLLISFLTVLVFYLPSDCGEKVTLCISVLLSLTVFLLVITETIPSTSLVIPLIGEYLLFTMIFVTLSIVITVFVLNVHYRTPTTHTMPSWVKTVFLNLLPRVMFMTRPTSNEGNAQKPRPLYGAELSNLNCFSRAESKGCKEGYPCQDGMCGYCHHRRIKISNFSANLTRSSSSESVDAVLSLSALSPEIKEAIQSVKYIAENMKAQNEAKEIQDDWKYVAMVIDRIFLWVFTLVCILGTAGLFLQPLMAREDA
Sequence of Human Ganglion (P30926 22-498): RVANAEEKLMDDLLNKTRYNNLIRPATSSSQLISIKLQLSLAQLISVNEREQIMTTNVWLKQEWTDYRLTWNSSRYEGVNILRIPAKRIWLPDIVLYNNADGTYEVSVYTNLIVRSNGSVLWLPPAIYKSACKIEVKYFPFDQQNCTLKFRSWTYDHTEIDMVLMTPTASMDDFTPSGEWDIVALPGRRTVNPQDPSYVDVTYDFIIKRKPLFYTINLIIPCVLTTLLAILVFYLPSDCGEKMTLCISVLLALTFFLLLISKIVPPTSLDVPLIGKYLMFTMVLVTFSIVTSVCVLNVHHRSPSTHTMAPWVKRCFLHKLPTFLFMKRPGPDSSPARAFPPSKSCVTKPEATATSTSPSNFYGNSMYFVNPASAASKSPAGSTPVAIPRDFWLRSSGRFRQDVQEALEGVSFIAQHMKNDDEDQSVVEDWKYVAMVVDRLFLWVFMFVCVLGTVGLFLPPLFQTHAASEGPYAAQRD
Sequence of Human α4β2 (P43681 29-627 limits assumed): as the sequence (P43681 29-627 limits assumed) above
Sequence of Human α4β2 (P17787 26-502): as the sequence (P17787 26-502) above

For the compound `O=C(O)CCC(=O)O.c1cncc(N2CCC3(CCCN3)C2)c1` (stereo not drawn), the melting point (commonly the temperature of the solid-liquid transition) lay in the range of 131.5 to 133 °C.

Take `O=C(O)c1ccc(O)cc1.c1cncc(N2CC[C@]3(CCCN3)C2)c1` [(R)-7-(3-pyridinyl)-1,7-diazaspiro[4.4]nonane mono-p-hydroxybenzoate]: the stability to humidity entry in [1] (DVS) was “particularly stable to high humidity”. Besides, in data set [1] (increasing then decreasing humidity over about 10 h), the “weight gain during the course of the DVS study” value is “less than 0.2 wt %”.

`O.O=C(O)C(=O)O.O=C(O)C(=O)O.c1cncc(N2CCC3(CCCN3)C2)c1` (stereo not drawn) (hydrate or solvate): the melting point was 200 to 201.5 °C.

As to `CNCCCN1c2ccccc2CCc2ccccc21` [desipramine, reference compound], in the data set with A/J mice, the “struggle intensity compared to saline” value was “increased struggle intensity” and the “total time immobile compared to saline” value is recorded as “decreased total time immobile”.

The compound `Cl.Cl.c1cncc(N2CCC3(CCCN3)C2)c1` (stereo not drawn) returned a melting point of 242 to 244 °C.

For the compound `c1cncc(N2CC[C@@]3(CCCN3)C2)c1` [Compound B, (S)-7-(3-pyridinyl)-1,7-diazaspiro[4.4]nonane], the “inhibition at non-selective peripheral muscarinic receptors” value in [2] stood at 84 % inhibition. The values for the inhibition at 10 µM at histamine H3 and at muscarinic M1 were 58% and 53%, respectively. Also, at Human Muscle, the “Human Muscle SP (100 μM)” value is under 1. Moreover, the “t1/2 (mean)” value in data set [3] (50 mg Compound C (n = 4)) stood at 21.0 h; in [3] (100 mg Compound C (n = 4)), 17.8 h; in [3] (400 mg Compound C (n = 4)), 16.6 h. The Cmax (commonly the maximum level reached in the sampled fluid or tissue) worked out at 12.1 ng/mL in data set [3] (50 mg Compound C (n = 4)), 24.6 ng/mL in [3] (100 mg Compound C (n = 4)) and 158 ng/mL in data set [3] (400 mg Compound C (n = 4)). In addition, the Tmax (in general, the time from dosing to the highest level) is 3.13 h in data set [3] (50 mg Compound C (n = 4)), 2.75 h in data set [3] (100 mg Compound C (n = 4)) and 2 h in data set [3] (400 mg Compound C (n = 4)). Moreover, the figures for the AUC(0-inf) in [3] (50 mg Compound C (n = 4)), in data set [3] (100 mg Compound C (n = 4)) and in data set [3] (400 mg Compound C (n = 4)) were 237 ng·h/mL, 364 ng·h/mL and 2130 ng·h/mL, respectively. Also, the half-life (as a rule, the time needed for the level to fall by half in the phase considered) was 21 h in [3] (50 mg Compound C (n = 4)), 17.8 h in data set [3] (100 mg Compound C (n = 4)) and 16.6 h in data set [3] (400 mg Compound C (n = 4)). The “share of total exposure (Cmax and AUCinf) compared to the racemate, Compound C” value in [3] (oral administration of Compound C) is “approximately half”. Also, the “inhibition at non-elective sigma receptors” value in the data set with non-elective sigma amounted to 56 % inhibition. For the same compound, the figures for the Ki on Rat α7, on Rat α4β2 and at Human α4β2 were over 10000 nM, 82 nM and 30 nM, respectively. For the same compound, the “Efficacy in multiple validated animal models of depression and anxiety” value in [4] is listed as “failed to demonstrate activity”. Moreover, the “inhibition at non-selective central muscarinic receptors” value in data set [5] was 84 % inhibition. For the same compound, the “inhibition at nicotinic receptors” value with nicotinic turned out to be 99 % inhibition. In addition, the EC50 (as a rule, the concentration giving half of the maximal effect) at human α4β2 NNRs (read-out: Human α4β2 EC50) came to 3900 nM. In addition, the Emax – broadly, the maximal effect, on the per cent scale that the assay sets – on human α4β2 NNRs (relative to 10 μM nicotine, read-out: Human α4β2 Emax (% of nic resp)) was 87%. Further, the “induced convulsion (animals affected)” value in the data set with rats is 1/6. In addition, at Human Ganglion, the “Human Ganglion SP (100 μM)” value is listed as 18.

With `c1cncc(N2CCC3(CCCN3)C2)c1` (racemic) (as salt: hydrochloride) [Compound C, 7-(3-pyridinyl)-1,7-diazaspiro[4.4]nonane], the melting point was 227 to 232 °C and 227 to 233 °C.
